According to ChEMBL document CHEMBL5154936, “Scaffold Hopping Strategy to Identify Prostanoid EP4 Receptor Antagonists for Cancer Immunotherapy” (J Med Chem, 2022):
Each block holds one compound with its values, some of them ahead of it.

Assays:
[1] = molecular target: Prostaglandin E2 receptor EP4 subtype (Homo sapiens, UniProt P35408); assay: Antagonist activity at human EP4 receptor transfected in CHO/Galpha16 cells preincubated for 15 mins followed by PGE2 addition by calcium flux assay; assay type: functional, cell-based
[2] = Metabolic stability in human liver microsomes assessed as half life; assay type: ADME, Microsome
[3] = Cytotoxicity against HEK293 cells assessed as reduction in cell viability incubated for 72 hrs by CCK-8 assay; assay type: toxicity, cell-based; settings: human
[4] = Metabolic stability in human liver microsomes assessed as parent compound remaining at 10 uM measured after 60 mins; assay type: ADME, Microsome; settings: read-out: Stability
[5] = molecular target: T1, CYP2B6 (Homo sapiens, UniProt P20813); assay: Inhibition of CYP2B6 (unknown origin) at 20 uM; assay type: ADME
T1 sequence (P20813 whole entry): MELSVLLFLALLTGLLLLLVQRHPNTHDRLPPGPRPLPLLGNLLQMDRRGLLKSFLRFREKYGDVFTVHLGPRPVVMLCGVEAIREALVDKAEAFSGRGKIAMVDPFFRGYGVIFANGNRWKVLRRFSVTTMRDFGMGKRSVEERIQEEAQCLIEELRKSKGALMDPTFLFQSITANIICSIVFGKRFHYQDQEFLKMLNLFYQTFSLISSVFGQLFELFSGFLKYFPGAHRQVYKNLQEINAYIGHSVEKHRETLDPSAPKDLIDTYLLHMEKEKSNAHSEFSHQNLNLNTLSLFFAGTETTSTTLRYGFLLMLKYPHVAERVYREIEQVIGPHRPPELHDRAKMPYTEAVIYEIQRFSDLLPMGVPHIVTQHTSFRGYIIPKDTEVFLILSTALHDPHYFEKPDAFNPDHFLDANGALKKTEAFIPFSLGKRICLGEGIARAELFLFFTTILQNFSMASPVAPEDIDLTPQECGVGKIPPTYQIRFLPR

[6] = test system: 3LL cell line; assay: Cytotoxicity against mouse 3LL cells assessed as reduction in cell viability incubated for 72 hrs by CCK-8 assay
[7] = Metabolic stability in mouse liver microsomes assessed as half life; assay type: ADME, Microsome
[8] = Metabolic stability in mouse liver microsomes assessed as parent compound remaining at 10 uM measured after 60 mins; assay type: ADME, Microsome; settings: read-out: Stability
[9] = test system: CT26; assay: Cytotoxicity against mouse CT26 cells assessed as reduction in cell viability incubated for 72 hrs by CCK-8 assay; settings: CT26, 72 h
[10] = test system: Panc02; assay: Cytotoxicity against mouse Panc02 cells assessed as reduction in cell viability incubated for 72 hrs by CCK-8 assay; settings: Panc02, 72 h
[11] = test system: EMT6; assay: Cytotoxicity against mouse EMT6 cells assessed as reduction in cell viability incubated for 72 hrs by CCK-8 assay; settings: EMT6, 72 h
[12] = molecular target: T2, Prostaglandin E2 receptor EP3 subtype (Homo sapiens, UniProt P43115); assay: Antagonist activity at human EP3 receptor transfected in CHO/Galpha16 cells preincubated for 15 mins followed by PGE2 addition by calcium flux assay; assay type: functional, cell-based
T2 sequence (P43115 whole entry): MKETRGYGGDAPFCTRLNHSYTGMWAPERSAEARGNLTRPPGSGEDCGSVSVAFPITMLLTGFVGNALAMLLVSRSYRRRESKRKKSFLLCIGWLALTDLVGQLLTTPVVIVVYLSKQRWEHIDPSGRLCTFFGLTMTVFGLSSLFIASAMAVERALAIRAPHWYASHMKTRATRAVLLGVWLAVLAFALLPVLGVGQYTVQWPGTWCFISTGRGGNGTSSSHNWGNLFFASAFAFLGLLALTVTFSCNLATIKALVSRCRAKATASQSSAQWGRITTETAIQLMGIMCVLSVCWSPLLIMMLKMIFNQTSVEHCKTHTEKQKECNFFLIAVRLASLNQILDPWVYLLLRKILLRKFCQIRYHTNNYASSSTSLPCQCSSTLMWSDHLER

[13] = molecular target: Prostaglandin E2 receptor EP4 subtype (Mus musculus, UniProt P32240); assay: Antagonist activity at mouse EP4 receptor transfected in CHO/Galpha16 cells preincubated for 15 mins followed by PGE2 addition by calcium flux assay; assay type: functional, cell-based
[14] = molecular target: CYP2C9 (Homo sapiens, UniProt P11712); assay: Inhibition of CYP2C9 (unknown origin) at 20 uM; assay type: ADME
[15] = molecular target: Prostaglandin E2 receptor EP2 subtype (Homo sapiens, UniProt P43116); assay: Antagonist activity at human EP2 receptor transfected in CHO/Galpha16 cells preincubated for 15 mins followed by PGE2 addition by calcium flux assay; assay type: functional, cell-based
[16] = molecular target: T3, Prostaglandin E2 receptor EP1 subtype (Homo sapiens, UniProt P34995); assay: Antagonist activity at human EP1 receptor transfected in CHO/Galpha16 cells preincubated for 15 mins followed by PGE2 addition by calcium flux assay; assay type: functional, cell-based
T3 sequence (P34995 whole entry): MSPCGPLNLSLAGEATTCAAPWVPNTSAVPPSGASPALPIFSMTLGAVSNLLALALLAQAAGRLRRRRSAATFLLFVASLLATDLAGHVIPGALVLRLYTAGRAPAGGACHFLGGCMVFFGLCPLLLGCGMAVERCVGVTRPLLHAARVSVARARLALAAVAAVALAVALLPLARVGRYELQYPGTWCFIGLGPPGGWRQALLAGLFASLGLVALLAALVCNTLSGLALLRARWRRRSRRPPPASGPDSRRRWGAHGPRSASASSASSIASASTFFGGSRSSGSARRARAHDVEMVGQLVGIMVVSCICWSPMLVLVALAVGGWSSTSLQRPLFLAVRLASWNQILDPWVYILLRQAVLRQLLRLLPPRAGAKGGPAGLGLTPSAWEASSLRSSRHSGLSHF

[17] = molecular target: CYP2D6 (Homo sapiens, UniProt P10635); assay: Inhibition of CYP2D6 (unknown origin) at 20 uM; assay type: ADME
[18] = Metabolic stability in human liver microsomes assessed as intrinsic clearance; assay type: ADME, Microsome; settings: read-out: CLH
[19] = Metabolic stability in mouse liver microsomes assessed as intrinsic clearance; assay type: ADME, Microsome; settings: read-out: CLH
[20] = molecular target: CYP2E1 (Homo sapiens, UniProt P05181); assay: Inhibition of CYP2E1 (unknown origin) at 20 uM; assay type: ADME
[21] = molecular target: T4, CYP1A2 (Homo sapiens, UniProt P05177); assay: Inhibition of CYP1A2 (unknown origin) at 20 uM; assay type: ADME
T4 sequence (P05177 whole entry): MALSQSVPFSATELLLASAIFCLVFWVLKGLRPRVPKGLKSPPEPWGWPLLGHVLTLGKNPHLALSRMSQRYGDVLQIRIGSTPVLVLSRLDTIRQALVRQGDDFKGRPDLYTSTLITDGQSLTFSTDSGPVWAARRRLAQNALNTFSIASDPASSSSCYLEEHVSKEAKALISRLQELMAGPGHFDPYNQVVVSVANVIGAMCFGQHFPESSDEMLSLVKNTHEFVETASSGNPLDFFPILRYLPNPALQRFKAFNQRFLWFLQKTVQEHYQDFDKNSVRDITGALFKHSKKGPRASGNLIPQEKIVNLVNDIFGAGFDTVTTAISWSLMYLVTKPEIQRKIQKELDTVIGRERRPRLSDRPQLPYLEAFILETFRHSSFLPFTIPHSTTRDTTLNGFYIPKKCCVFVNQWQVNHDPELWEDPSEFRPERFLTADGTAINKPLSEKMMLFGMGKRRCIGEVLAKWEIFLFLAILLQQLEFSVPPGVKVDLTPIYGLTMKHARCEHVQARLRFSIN

Chain of Prostaglandin E2 receptor EP4 subtype (Mus musculus, UniProt P32240) (P32240 whole entry): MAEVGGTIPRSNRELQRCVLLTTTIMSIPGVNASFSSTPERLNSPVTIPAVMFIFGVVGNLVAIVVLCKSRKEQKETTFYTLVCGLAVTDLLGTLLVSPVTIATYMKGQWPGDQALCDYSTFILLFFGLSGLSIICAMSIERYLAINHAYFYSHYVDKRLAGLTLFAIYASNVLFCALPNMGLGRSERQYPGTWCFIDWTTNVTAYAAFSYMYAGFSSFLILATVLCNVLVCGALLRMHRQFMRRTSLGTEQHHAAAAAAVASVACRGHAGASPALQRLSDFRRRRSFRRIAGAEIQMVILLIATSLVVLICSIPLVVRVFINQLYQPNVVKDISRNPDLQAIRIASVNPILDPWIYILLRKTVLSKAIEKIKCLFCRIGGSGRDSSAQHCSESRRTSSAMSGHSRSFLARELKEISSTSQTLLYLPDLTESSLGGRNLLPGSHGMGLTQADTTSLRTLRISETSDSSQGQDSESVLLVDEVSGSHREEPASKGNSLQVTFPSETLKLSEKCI
Chain of Prostaglandin E2 receptor EP4 subtype (Homo sapiens, UniProt P35408) (P35408 whole entry): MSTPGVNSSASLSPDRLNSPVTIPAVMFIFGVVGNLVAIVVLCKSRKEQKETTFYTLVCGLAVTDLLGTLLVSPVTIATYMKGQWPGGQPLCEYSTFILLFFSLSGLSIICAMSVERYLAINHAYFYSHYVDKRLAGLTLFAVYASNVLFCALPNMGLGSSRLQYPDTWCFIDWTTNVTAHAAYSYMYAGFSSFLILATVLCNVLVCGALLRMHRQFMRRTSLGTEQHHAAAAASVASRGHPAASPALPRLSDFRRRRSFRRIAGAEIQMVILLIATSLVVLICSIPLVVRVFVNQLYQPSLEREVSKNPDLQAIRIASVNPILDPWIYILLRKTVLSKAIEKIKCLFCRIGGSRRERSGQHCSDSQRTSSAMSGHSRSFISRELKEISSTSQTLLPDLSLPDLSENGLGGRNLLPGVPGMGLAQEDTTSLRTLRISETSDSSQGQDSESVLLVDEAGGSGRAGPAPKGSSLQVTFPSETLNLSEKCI
Chain of Prostaglandin E2 receptor EP2 subtype (P43116 whole entry): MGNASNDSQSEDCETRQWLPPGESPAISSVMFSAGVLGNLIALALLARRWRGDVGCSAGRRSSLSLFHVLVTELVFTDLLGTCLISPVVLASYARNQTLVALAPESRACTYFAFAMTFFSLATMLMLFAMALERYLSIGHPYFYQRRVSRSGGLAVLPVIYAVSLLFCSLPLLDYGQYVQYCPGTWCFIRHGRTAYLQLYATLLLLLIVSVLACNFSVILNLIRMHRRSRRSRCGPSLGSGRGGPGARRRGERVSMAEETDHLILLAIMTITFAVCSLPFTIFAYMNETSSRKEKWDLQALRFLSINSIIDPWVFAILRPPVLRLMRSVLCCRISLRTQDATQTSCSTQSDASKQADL
Chain of CYP2C9 (P11712 whole entry): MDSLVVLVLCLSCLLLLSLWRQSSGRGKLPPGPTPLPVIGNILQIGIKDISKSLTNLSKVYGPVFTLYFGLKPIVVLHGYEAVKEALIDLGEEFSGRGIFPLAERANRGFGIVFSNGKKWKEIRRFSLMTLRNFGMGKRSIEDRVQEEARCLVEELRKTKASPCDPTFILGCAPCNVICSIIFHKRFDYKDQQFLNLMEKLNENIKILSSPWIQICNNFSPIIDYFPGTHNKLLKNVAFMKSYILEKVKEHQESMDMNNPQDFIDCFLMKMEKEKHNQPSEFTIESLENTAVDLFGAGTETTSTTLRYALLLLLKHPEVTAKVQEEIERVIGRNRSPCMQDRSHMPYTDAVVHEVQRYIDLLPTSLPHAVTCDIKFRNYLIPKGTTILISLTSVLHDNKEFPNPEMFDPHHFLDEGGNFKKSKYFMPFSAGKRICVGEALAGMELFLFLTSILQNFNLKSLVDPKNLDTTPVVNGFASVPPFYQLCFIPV
Chain of CYP2D6 (P10635 whole entry): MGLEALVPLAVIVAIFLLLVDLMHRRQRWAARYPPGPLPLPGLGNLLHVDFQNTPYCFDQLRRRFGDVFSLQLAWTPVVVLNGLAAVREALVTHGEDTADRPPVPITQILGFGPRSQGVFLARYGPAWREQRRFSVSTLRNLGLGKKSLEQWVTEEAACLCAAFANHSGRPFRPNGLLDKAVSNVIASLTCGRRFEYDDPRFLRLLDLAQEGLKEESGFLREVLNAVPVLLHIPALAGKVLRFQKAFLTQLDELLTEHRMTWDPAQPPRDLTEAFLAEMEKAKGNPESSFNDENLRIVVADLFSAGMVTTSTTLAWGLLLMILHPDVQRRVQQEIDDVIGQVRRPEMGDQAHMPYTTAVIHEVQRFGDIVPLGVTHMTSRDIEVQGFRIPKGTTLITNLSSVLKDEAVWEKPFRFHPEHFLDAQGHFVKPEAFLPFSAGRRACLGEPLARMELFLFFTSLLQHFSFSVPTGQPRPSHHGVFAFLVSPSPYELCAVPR
Chain of CYP2E1 (P05181 whole entry): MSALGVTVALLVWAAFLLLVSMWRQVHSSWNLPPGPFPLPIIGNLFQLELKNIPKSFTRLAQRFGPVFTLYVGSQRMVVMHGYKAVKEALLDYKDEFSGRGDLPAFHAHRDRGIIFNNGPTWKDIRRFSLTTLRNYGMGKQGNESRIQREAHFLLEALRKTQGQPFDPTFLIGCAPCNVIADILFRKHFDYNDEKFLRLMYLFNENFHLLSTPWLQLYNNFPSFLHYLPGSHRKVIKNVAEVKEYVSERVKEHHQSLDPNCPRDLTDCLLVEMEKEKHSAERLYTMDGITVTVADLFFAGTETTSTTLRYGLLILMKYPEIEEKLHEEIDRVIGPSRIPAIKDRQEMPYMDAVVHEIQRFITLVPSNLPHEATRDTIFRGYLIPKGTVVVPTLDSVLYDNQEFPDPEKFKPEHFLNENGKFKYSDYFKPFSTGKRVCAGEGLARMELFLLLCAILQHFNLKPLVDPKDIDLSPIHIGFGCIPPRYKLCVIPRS

IC50 [1]: 1 nM
SMILES: O=C(O)c1ccc(C2(NC(=O)c3c(Cc4cccc(C(F)(F)F)c4)sc4c3CCOC4)CC2)cc1

IC50 [1]: 648 nM
SMILES: CCC1CCc2c(sc(CCc3ccc(F)cc3)c2C(=O)N[C@@H](C)c2ccc(C(=O)O)cc2)C1 (stereo partly specified)

half-life [2]: > 145 min
remaining at 1 h, 10 µM [4]: 90%
inhibition at 20 µM [5]: 68%
half-life [7]: > 145 min
remaining at 1 h, 10 µM [8]: 87.9%
IC50 [12]: > 10 µM
IC50 [13]: 336 nM
inhibition at 20 µM [14]: 24%
IC50 [15]: > 10 µM
IC50 [16]: > 10 µM
inhibition at 20 µM [17]: 62%
microsomal CLint [18]: < 9.6 µL/min/mg
microsomal CLint [19]: < 9.6 µL/min/mg
inhibition at 20 µM [20]: 26%
IC50 [1]: 2.1 nM
inhibition at 20 µM [21]: 69%
SMILES: C[C@H](NC(=O)c1c(Cc2ccc(C(F)(F)F)cc2)sc2c1CCOC2)c1ccc(C(=O)O)cc1
IC50 at 72 h [3]: > 100 µM
IC50 [6]: > 100 µM
IC50 [9]: > 100 µM
IC50 [10]: > 100 µM
IC50 [11]: > 100 µM

IC50 [1]: 642 nM
SMILES: C[C@H](NC(=O)c1c(C#Cc2ccc(=O)[nH]c2)sc2c1CCOC2)c1ccc(C(=O)O)cc1

IC50 [12]: > 10 µM
IC50 [15]: > 10 µM
IC50 [16]: > 10 µM
IC50 [1]: 2.1 nM
SMILES: COc1ccc(Cc2sc3c(c2C(=O)N[C@@H](C)c2ccc(C(=O)O)cc2)CCOC3)cc1

IC50 [1]: 187 nM
SMILES: CON(C)C(=O)c1ccc([C@H](C)NC(=O)c2c(Cc3ccc(F)cc3)sc3c2CCOC3)cc1

IC50 [1]: > 1000 nM
SMILES: O=C(O)c1cccc(CNC(=O)c2c(Cc3cccc(C(F)(F)F)c3)sc3c2CCOC3)c1

IC50 [1]: 1.9 nM
SMILES: COc1cccc(Cc2sc3c(c2C(=O)N[C@@H](C)c2ccc(C(=O)O)cc2)CCOC3)c1

half-life [2]: 48.6 min
remaining at 1 h, 10 µM [4]: 40.7%
inhibition at 20 µM [5]: 76%
half-life [7]: > 145 min
remaining at 1 h, 10 µM [8]: 75.7%
IC50 [12]: > 10 µM
IC50 [13]: 50.1 nM
inhibition at 20 µM [14]: 58%
IC50 [15]: > 10 µM
IC50 [16]: > 10 µM
inhibition at 20 µM [17]: 76%
microsomal CLint [18]: 28.5 µL/min/mg
microsomal CLint [19]: < 9.6 µL/min/mg
inhibition at 20 µM [20]: 39%
IC50 [1]: 19.1 nM
inhibition at 20 µM [21]: 88%
SMILES: C[C@H](NC(=O)c1c(CCc2ccc(F)cc2)sc2c1CCOC2)c1ccc(C(=O)O)cc1
IC50 at 72 h [3]: > 100 µM
IC50 [6]: > 100 µM
IC50 [9]: > 100 µM
IC50 [10]: > 100 µM
IC50 [11]: > 100 µM

IC50 [1]: 36.2 nM
SMILES: C[C@H](NC(=O)c1c(CCc2ccc(F)cc2)sc2c1CC(C)(C)OC2)c1ccc(C(=O)O)cc1

IC50 [1]: 12.4 nM
SMILES: COc1cccc(C#Cc2sc3c(c2C(=O)N[C@@H](C)c2ccc(C(=O)O)cc2)CCOC3)c1

IC50 [1]: 315 nM
SMILES: C[C@H](NC(=O)c1c(CCc2ccc(F)cc2)sc2c1CCN(C(=O)OC(C)(C)C)C2)c1ccc(C(=O)O)cc1

IC50 [1]: > 1000 nM
SMILES: C[C@H](NC(=O)c1c(/N=C/c2cccc(C(F)(F)F)c2)sc2c1CCOC2)c1ccc(C(=O)O)cc1

half-life [2]: 14 min
remaining at 1 h, 10 µM [4]: 5%
IC50 [13]: 29 nM
microsomal CLint [18]: 97.6 µL/min/mg
IC50 [1]: 27.8 nM
SMILES: C[C@H](NC(=O)c1c(CCc2ccc(F)cc2)sc2c1CCCC2)c1ccc(C(=O)O)cc1
